Measured values reported in ChEMBL document CHEMBL1142743, “8-Piperazinyl-2,3-dihydropyrrolo[3,2-g]isoquinolines: potent, selective, orally bioavailable 5-HT1 receptor ligands” (Bioorg Med Chem Lett, 2005).
The source made the active and inactive calls. The calls are words filed in the database; no cut-off is given here.

Tests used:
[1] = biological target: T1, 5-hydroxytryptamine receptor 1A (Homo sapiens, UniProt P08908); assay: Mean binding affinity towards 5-hydroxytryptamine 1A receptor using [3H]-5-HT or [3H]8-OH-DPAT as the radioligand
T1 sequence (P08908 whole entry): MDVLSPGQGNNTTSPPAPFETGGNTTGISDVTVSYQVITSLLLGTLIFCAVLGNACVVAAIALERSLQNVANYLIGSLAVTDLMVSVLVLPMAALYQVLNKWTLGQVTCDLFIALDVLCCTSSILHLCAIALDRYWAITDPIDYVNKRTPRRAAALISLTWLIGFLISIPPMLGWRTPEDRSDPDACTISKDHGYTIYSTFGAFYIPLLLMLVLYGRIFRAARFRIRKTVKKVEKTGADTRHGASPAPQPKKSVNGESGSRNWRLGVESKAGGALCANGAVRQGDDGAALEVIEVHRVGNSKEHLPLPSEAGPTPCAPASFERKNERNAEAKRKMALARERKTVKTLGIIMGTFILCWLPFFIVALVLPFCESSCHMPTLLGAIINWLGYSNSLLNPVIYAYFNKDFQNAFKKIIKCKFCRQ

[2] = biological target: 5-hydroxytryptamine receptor 1D (Homo sapiens, UniProt P28221); assay: Mean binding affinity towards 5-hydroxytryptamine 1D receptor using [3H]5-HT or [3H]-8-OH-DPAT as the radioligand
[3] = biological target: T2, 5-hydroxytryptamine receptor 1B (Homo sapiens, UniProt P28222); assay: Mean binding affinity towards 5-hydroxytryptamine 1B receptor using [3H]5-HT or [3H]-8-OH-DPAT as the radioligand
[4] = Oral bioavailability in rat; type: ADME, organism-based; details: in vivo
[5] = In vivo clearance after administration in rat; type: ADME, organism-based; details: blood, read-out: CLb
[6] = Brain/blood concentration after administration in rat; type: ADME, tissue-based; details: read-out: Brain/Blood concentration
[7] = biological target: T3, 5-hydroxytryptamine receptor 1A (Homo sapiens) (UniProt P08908); assay: Partial agonist efficacy in the 5-HT1A GTPgammaS functional assay; Expressed as fraction of 5-HT efficacy
T3 sequence (whole entry): T1 sequence (P08908 whole entry)

[8] = biological target: T2, 5-hydroxytryptamine receptor 1B; assay: Partial agonist efficacy in the 5-HT1B GTPgammaS functional assay; Expressed as fraction of 5-HT efficacy
[9] = biological target: T3, 5-hydroxytryptamine receptor 1A (Homo sapiens); assay: Partial agonist efficacy in the 5-HT1A GTPgammaS functional assay; Expressed as fraction of 5-HT efficacy; Inactive

Chain of 5-hydroxytryptamine receptor 1D (P28221 whole entry): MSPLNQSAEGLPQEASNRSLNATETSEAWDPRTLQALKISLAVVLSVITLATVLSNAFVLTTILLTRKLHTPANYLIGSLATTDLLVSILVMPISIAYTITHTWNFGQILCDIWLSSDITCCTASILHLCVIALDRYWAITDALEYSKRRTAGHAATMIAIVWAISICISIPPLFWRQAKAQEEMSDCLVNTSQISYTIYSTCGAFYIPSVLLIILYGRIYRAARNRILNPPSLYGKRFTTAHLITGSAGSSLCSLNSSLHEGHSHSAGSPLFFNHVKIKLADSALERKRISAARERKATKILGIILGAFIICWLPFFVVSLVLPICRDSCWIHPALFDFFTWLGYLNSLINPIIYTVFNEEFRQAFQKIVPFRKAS
T2 sequence (P28222 whole entry): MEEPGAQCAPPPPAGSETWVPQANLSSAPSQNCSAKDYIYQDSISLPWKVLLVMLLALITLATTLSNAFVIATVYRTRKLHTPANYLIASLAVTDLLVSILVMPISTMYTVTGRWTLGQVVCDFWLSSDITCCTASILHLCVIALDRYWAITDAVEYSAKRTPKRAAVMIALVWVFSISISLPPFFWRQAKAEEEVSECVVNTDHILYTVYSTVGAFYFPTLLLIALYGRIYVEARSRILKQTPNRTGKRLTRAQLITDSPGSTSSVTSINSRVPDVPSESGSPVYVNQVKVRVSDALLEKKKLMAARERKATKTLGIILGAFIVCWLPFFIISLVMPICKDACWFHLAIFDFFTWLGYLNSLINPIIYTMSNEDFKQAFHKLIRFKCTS

Compound | Ki [1] [nM] | Ki [2] [nM] | Ki [3] [nM] | bioavailability [4] [%] | clearance [5] [mL/min/kg] | Kp [6] | Efficacy [7] | Efficacy [8] | Efficacy [9]
CN1CCN(c2cc3c(cc2Cl)CCN3C(=O)Nc2ccc(-c3ccncc3)c3ccccc23)CC1 | 10 | 2 | 7.94 |  |  |  |  |  | 
Cc1nc(C)c(C(=O)N2CCc3cc4ccnc(N5CCN(C)CC5)c4cc32)o1 | 6.31 | 2.51 | 15.8 | 55 | 39 | 0.5 |  |  | 
CCc1c(C(=O)N2CCc3cc4ccnc(N5CCN6CCC[C@H]6C5)c4cc32)cnn1-c1ccc(C#N)cc1 | 1.26 | 3.16 | 2 |  |  |  |  |  | 
CN1CCN(c2nccc3cc4c(cc23)N(C(=O)c2cccc3ncccc23)CC4)CC1 | 3.98 | 3.98 | 0.794 |  | 75 | 0.2 |  |  | 
CN1CCN(c2nccc3cc4c(cc23)N(C(=O)c2ccccc2Cl)CC4)CC1 | 5.01 | 2.51 | 1.26 |  |  |  | 0.42 | 0.42 | 
CCc1c(C(=O)N2CCc3cc4ccnc(N5CCN(CC)CC5)c4cc32)cnn1-c1ccc(C#N)cc1 | 3.16 | 2.51 | 1.58 |  |  |  |  |  | 
CCc1c(C(=O)N2CCc3cc4ccnc(N5CCN6CCC[C@@H]6C5)c4cc32)cnn1-c1ccc(C#N)cc1 | 1.58 | 1 | 1 |  |  |  |  |  | 
CCc1c(C(=O)N2CCc3cc4ccnc(N5C[C@@H](C)N[C@@H](C)C5)c4cc32)cnn1-c1ccc(C#N)cc1 | 31.6 | 7.94 | 7.94 |  |  |  |  |  | 
CN1CCN(c2nccc3cc4c(cc23)N(C(=O)c2ccccc2C(F)(F)F)CC4)CC1 | 10 | 15.8 | 15.8 |  |  |  |  | 0.23 | inactive
CN1CCN(c2nccc3cc4c(cc23)N(C(=O)c2cnn(C)c2C(F)(F)F)CC4)CC1 | 6.31 | 10 | 5.01 |  | 48 | 0.1 |  |  | 
Cc1cc(C(=O)N2CCc3cc4ccnc(N5CCN(C)CC5)c4cc32)c(C(F)(F)F)o1 | 5.01 | 7.94 | 2 |  |  |  |  |  | 
CCc1c(C(=O)N2CCc3cc4ccnc(N5CCN(C(C)C)CC5)c4cc32)cnn1-c1ccc(C#N)cc1 | 6.31 | 7.94 | 3.98 |  |  |  |  |  | 
CN1CCN(c2nccc3cc4c(cc23)N(C(=O)c2ccc(C(F)(F)F)nc2)CC4)CC1 | 3.16 | 0.501 | 0.251 |  |  |  |  |  | 

Continued by falling Ki [1], values first:

Ki [1] [nM] | Ki [2] [nM] | Ki [3] [nM] | bioavailability [4] [%] | clearance [5] [mL/min/kg] | Kp [6] | Efficacy [7] | Efficacy [8] | Efficacy [9] | Compound
1.26 | 0.631 | 1 | 50 | 28 | 0.5 | 0.33 | 0.47 |  | CCc1c(C(=O)N2CCc3cc4ccnc(N5CCN(C)CC5)c4cc32)cnn1-c1ccc(C#N)cc1
1.26 | 2.51 | 2.51 |  |  |  |  |  |  | CCc1c(C(=O)N2CCc3cc4ccnc(N5CCNCC5)c4cc32)cnn1-c1ccc(C#N)cc1
1 | 0.794 | 0.501 |  | 19 | 0.7 | 0.84 | 0.86 |  | CN1CCN(c2nccc3cc4c(cc23)N(C(=O)c2ccc(C#N)cc2)CC4)CC1
0.794 | 0.501 | 0.316 |  | 29 | 1.3 | 0.69 | 0.75 |  | CN1CCN(c2nccc3cc4c(cc23)N(C(=O)c2ccc(Cl)cc2)CC4)CC1
0.631 | 0.631 | 0.631 | 40 | 32 | 1.1 | 0.54 | 0.59 |  | Cc1c(C(=O)N2CCc3cc4ccnc(N5CCN(C)CC5)c4cc32)cnn1-c1ccccc1
0.316 | 1.26 | 1 |  |  |  |  |  |  | CN1CCN(c2nccc3cc4c(cc23)N(C(=O)c2cnn3ccccc23)CC4)CC1
